In US20260242343A1, “COMPOUND SERVING AS DDR1 KINASE INHIBITOR, AND MEDICINE” (NIPPON SHINYAKU CO., LTD., priority 2022, published 2026):
Where a name gives a salt, the structure may show the parent alone.

Experiments:
DDR1 protein = target: T1, DDR1 protein (Homo sapiens, UniProt Q08345); assay: Evaluation of DDR1 kinase inhibitory activity (LANCE Ultra TR-FRET); assay type: biochemical; conditions: DDR1 protein 0.5 nM, ATP 100 μM, 2 hours at room temperature; read-out: DDR-1 IC50
T1 construct: purchased Carna Biosciences 08-113
T1 sequence (Q08345 19-876 isoform Q08345-2 limits assumed): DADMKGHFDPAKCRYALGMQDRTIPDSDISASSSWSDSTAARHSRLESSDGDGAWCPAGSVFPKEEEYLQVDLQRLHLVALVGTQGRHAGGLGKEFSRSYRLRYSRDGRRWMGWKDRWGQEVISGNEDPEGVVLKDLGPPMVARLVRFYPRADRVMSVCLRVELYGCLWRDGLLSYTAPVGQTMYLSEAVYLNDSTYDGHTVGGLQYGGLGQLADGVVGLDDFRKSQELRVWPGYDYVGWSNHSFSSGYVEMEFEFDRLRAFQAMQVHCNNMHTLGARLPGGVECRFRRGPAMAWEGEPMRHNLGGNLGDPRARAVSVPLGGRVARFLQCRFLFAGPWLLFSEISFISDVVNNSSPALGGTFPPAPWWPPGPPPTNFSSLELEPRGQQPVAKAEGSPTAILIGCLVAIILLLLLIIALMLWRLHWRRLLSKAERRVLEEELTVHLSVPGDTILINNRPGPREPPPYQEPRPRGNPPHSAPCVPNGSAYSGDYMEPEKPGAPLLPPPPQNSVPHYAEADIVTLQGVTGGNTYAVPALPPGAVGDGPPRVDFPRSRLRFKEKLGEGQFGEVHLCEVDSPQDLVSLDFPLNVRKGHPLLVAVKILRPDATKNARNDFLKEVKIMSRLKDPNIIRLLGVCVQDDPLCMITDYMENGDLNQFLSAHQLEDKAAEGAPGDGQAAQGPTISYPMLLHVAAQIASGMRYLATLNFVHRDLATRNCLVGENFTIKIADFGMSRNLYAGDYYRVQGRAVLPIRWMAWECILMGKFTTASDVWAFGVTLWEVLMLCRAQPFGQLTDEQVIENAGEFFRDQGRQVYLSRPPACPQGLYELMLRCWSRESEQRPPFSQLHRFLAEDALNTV
Description: The test was performed in duplicate.

[1] = target: T2, DDR1 kinase in DDR1-expressing U2OS cells (Homo sapiens, UniProt Q08345); assay: DDR1 kinase inhibitory effect in DDR1-expressing U2OS cells (PathHunter, type I collagen stimulation); assay type: cell-based; conditions: type I collagen 50 μg/mL, 10% FBS, read-out: DDR-1 IC50
T2 construct: host or cells: U2OS
T2 sequence (Q08345 19-913): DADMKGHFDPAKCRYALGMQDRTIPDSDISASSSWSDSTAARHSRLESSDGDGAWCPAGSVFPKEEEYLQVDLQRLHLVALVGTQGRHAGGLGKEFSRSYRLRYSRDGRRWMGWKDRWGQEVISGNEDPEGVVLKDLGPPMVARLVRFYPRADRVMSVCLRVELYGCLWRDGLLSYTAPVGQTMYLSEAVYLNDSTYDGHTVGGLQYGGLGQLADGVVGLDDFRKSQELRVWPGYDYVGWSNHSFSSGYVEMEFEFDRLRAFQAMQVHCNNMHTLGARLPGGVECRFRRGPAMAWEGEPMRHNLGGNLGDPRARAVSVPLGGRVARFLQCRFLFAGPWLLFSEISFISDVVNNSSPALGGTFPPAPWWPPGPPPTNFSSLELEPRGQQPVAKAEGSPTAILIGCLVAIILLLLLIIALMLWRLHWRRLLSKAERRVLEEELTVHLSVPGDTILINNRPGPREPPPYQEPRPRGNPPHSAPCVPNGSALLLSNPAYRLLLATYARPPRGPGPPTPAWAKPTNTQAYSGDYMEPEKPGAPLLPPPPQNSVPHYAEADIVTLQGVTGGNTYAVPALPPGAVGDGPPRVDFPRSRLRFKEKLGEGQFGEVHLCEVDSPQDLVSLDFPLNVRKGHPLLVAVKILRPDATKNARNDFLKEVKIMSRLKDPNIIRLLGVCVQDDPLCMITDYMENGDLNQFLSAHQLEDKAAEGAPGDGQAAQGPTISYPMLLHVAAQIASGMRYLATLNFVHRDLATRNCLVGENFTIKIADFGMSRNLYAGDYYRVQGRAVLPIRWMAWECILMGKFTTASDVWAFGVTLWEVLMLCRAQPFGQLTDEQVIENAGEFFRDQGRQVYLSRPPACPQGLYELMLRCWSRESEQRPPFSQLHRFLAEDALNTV
Description: Test compounds in DMSO were prepared at 10 mM and diluted with DMSO to final concentrations of 1000, 100, 10, 1, and 0.1 μM. These solutions were diluted further with E-MEM medium (Fujifilm Wako Pure Chemical Industries, 051-07615) containing 10% fetal bovine serum (FBS, Gibco, 10270106) to 60,000, 6,000, 600, 60, 6, and 0.6 nM to obtain test sample solutions.
DDR1-expressing U2OS cells (DiscoverX, 93-0894C3) suspended at 2.5×10^5 cells/mL in 10% FBS+E-MEM medium were seeded in 384-well plates (DiscoverX, 92-0013) in 20 μL portions and cultured overnight at 37° C. and 5% CO2.
The next day, the test sample solutions as prepared were added at 5 μL/well to final concentrations of 10,000, 1,000, 100, 10, 1, and 0.1 nM. After incubation at 37° C. and 5% CO2 for 1 hour, type I collagen (Nitta Gelatin, 631-00771) was added at 5 μL/well to a final concentration of 50 μg/mL, and cultured overnight at 37° C. and 5% CO2.
The next day, the plate was left at room temperature for 1 hour, after which 5 μL/well of detection solution was added according to the instruction manual for the PathHunter (registered trademark) Detection Kit (DiscoverX, 93-0001). […] The test was performed in duplicate.

Row | SMILES | IC50 (DDR1 protein) [nM] | IC50 [1] [nM]
1 | CCc1ccc(C(=O)N[C@H](CO)CCOC(F)(F)F)cc1NC(=O)c1cnc(CC2CC2)s1 [Example 47, 2-(Cyclopropylmethyl)-N-(2-ethyl-5-{[(2S)-1-hydroxy-4-(trifluoromethoxy)butan-2-yl]carbamoyl}phenyl)-1,3-thiazole-5-carboxamide] | 51 | 59
2 | Nc1ncc(/C(F)=C/c2cc(C(=O)N[C@H](CO)c3cccc(F)c3)ccc2OC(F)F)cn1 [Example 34, 3-[(1Z)-2-(2-Aminopyrimidin-5-yl)-2-fluoroethenyl]-4-(difluoromethoxy)-N-[(1S)-1-(3-fluorophenyl)-2-hydroxyethyl]benzamide] | 8.2 | 44
3 | Cn1cc(C#Cc2cc(C(=O)N[C@H](CO)CCOC(F)(F)F)ccc2OC(F)F)cn1 [Example 24, 4-(Difluoromethoxy)-N-[(2S)-1-hydroxy-4-(trifluoromethoxy)butan-2-yl]-3-[2-(1-methyl-1H-pyrazol-4-yl)ethynyl]benzamide] | 36 | 97
4 | Nc1ncc(C#Cc2cc(C(=O)N[C@H](CO)c3ccccc3)ccc2OC(F)F)cn1 [Example 36, 3-[2-(2-Aminopyrimidin-5-yl)ethynyl]-4-(difluoromethoxy)-N-[(1S)-2-hydroxy-1-phenylethyl]benzamide hydrochloride] | 8.6 | 230
5 | CCc1ccc(C(=O)N[C@H](CO)CCOC(F)(F)F)cc1NC(=O)c1cncc(OCC2CC2)c1 [Example 43, 5-(Cyclopropylmethoxy)-N-(2-ethyl-5-{[(2S)-1-hydroxy-4-(trifluoromethoxy)butan-2-yl]carbamoyl}phenyl)pyridine-3-carboxamide] | 68 | 240
6 | CCc1ncc(C(=O)N[C@H]2C[C@H](OC(F)(F)F)C[C@@H]2O)cc1/C=C(\F)c1cnc(N)nc1 [Example 11, 5-[(1Z)-2-(2-Aminopyrimidin-5-yl)-2-fluoroethenyl]-6-ethyl-N-[(1S,2S,4S)-2-hydroxy-4-(trifluoromethoxy)cyclopentyl]pyridine-3-carboxamide] | 22 | 120
7 | CCc1ccc(C(=O)N[C@H](CO)CCOC(F)(F)F)cc1NC(=O)c1cnc(NCC2CC2)s1 [Example 44, 2-[(Cyclopropylmethyl)amino]-N-(2-ethyl-5-{[(2S)-1-hydroxy-4-(trifluoromethoxy)butan-2-yl]carbamoyl}phenyl)-1,3-thiazole-5-carboxamide] | 9.4 | 15
8 | Nc1ncc(/C(F)=C/c2cc(C(=O)N[C@H]3CC(F)(F)CC[C@@H]3O)ccc2OC(F)F)cn1 [Example 37, 3-[(1Z)-2-(2-Aminopyrimidin-5-yl)-2-fluoroethenyl]-N-[(1S,2S)-5,5-difluoro-2-hydroxycyclohexyl]-4-(difluoromethoxy)benzamide] | 15 | 40
9 | NC(=O)c1ncc2cc(-c3cc(C(=O)N[C@H]4CC(F)(F)CC[C@@H]4O)ccc3C(F)(F)F)ccn12 [Example 27, 7-(5-{[(1S,2S)-5,5-Difluoro-2-hydroxycyclohexyl]carbamoyl}-2-(trifluoromethyl)phenyl)imidazo[1,5-a]pyridine-3-carboxamide] | 4 | 10
10 | Nc1ncc(C#Cc2cc(C(=O)N[C@H](CO)Cc3ccc(Cl)cc3)ccc2OC(F)F)cn1 [Example 35, 3-[2-(2-Aminopyrimidin-5-yl)ethynyl]-N-[(2S)-1-(4-chlorophenyl)-3-hydroxypropan-2-yl]-4-(difluoromethoxy)benzamide hydrochloride] | 3.3 | 12
11 | O=C(N[C@H]1C[C@H](OC(F)(F)F)C[C@@H]1O)c1ccc(OC(F)F)c(C#Cc2cncc(F)c2)c1 [Example 2, 4-(Difluoromethoxy)-3-[2-(5-fluoropyridin-3-yl)ethynyl]-N-[(1S,2S,4S)-2-hydroxy-4-(trifluoromethoxy)cyclopentyl]benzamide] | 3.6 | 38
12 | CCc1ccc(C(=O)N[C@H]2C[C@H](OC(F)(F)F)C[C@@H]2O)cc1NC(=O)c1cnc(C2CC2)s1 [Example 46, 2-Cyclopropyl-N-(2-ethyl-5-{[(1S,2S,4S)-2-hydroxy-4-(trifluoromethoxy)cyclopentyl]carbamoyl}phenyl)-1,3-thiazole-5-carboxamide] | 9.1 | 44

Stronger by IC50 (DDR1 protein), values ahead:

Row | IC50 (DDR1 protein) [nM] | IC50 [1] [nM] | SMILES
13 | 3.2 | 27 | O=C(N[C@H]1CC2(CC2)C[C@@H]1O)c1ccc(OC(F)F)c(C#Cc2cncc(F)c2)c1 [Example 19, 4-(Difluoromethoxy)-3-[2-(5-fluoropyridin-3-yl)ethynyl]-N-[(5S,6S)-6-hydroxyspiro[2.4]heptan-5-yl]benzamide]
14 | 3.1 | 16 | Nc1ncc(C#Cc2cc(C(=O)N[C@H]3CC(F)(F)CC[C@@H]3O)ccc2OC(F)F)cn1 [Example 20, 3-[2-(2-Aminopyrimidin-5-yl)ethynyl]-N-[(1S,2S)-5,5-difluoro-2-hydroxycyclohexyl]-4-(difluoromethoxy)benzamide p-toluenesulfonate]
15 | 2.2 | 5.3 | NC(=O)c1ncc2cc(-c3cc(C(=O)N[C@H](CO)CCOC(F)(F)F)ccc3C(F)(F)F)ccn12 [Example 31, 7-(5-{[(2S)-1-Hydroxy-4-(trifluoromethoxy)butan-2-yl]carbamoyl}-2-(trifluoromethyl)phenyl)imidazo[1,5-a]pyridine-3-carboxamide]
16 | 2.2 | 14 | NC(=O)c1ncc2cc(-c3cc(C(=O)N[C@H]4C[C@H](OC(F)(F)F)C[C@@H]4O)cnc3C(F)(F)F)ccn12 [Example 15, 5-{3-Carbamoylimidazo[1,5-a]pyridin-7-yl}-N-[(1S,2S,4S)-2-hydroxy-4-(trifluoromethoxy)cyclopentyl]-6-(trifluoromethyl)pyridine-3-carboxamide]
17 | 1.6 | 54 | CCc1ccc(C(=O)N[C@H]2C[C@H](OC(F)(F)F)C[C@@H]2O)cc1NC(=O)c1cncc(OCC2CC2)c1 [Example 42, 5-(Cyclopropylmethoxy)-N-(2-ethyl-5-{[(1S,2S,4S)-2-hydroxy-4-(trifluoromethoxy)cyclopentyl]carbamoyl}phenyl)pyridine-3-carboxamide]
18 | 1.6 | 17 | CCc1ccc(C(=O)N[C@H]2C[C@H](OC(F)(F)F)C[C@@H]2O)cc1NC(=O)c1cnc(CC2CC2)s1 [Example 17, 2-(Cyclopropylmethyl)-N-(2-ethyl-5-{[(1S,2S,4S)-2-hydroxy-4-(trifluoromethoxy)cyclopentyl]carbamoyl}phenyl)-1,3-thiazole-5-carboxamide]
19 | 1.3 | 6.8 | CCc1ccc(C(=O)N[C@H]2C[C@H](OC(F)(F)F)C[C@@H]2O)cc1NC(=O)c1cnc(NCC2CC2)s1 [Example 45, 2-[(Cyclopropylmethyl)amino]-N-(2-ethyl-5-{[(1S,2S,4S)-2-hydroxy-4-(trifluoromethoxy)cyclopentyl]carbamoyl}phenyl)-1,3-thiazole-5-carboxamide]
20 | 1.1 | 14 | Nc1ncc(/C=C(\F)c2cc(C(=O)N[C@H](CO)CCOC(F)(F)F)ccc2OC(F)F)cn1 [Example 12, 3-[(1Z)-2-(2-Aminopyrimidin-5-yl)-1-fluoroethenyl]-4-(difluoromethoxy)-N-[(2S)-1-hydroxy-4-(trifluoromethoxy)butan-2-yl]benzamide]
21 | 0.87 | 1.9 | COc1cncc(/C=C(\F)c2cc(C(=O)N[C@H]3C[C@H](OC(F)(F)F)C[C@@H]3O)cc(F)c2OC(F)F)c1 [Example 13, 4-(Difluoromethoxy)-3-fluoro-5-[(1Z)-1-fluoro-2-(5-methoxypyridin-3-yl)ethenyl]-N-[(1S,2S,4S)-2-hydroxy-4-(trifluoromethoxy)cyclopentyl]benzamide]
22 | 0.86 | 7.8 | NC(=O)c1ncc2cc(-c3cc(C(=O)N[C@H]4CC5(CC5)C[C@@H]4O)ccc3C(F)(F)F)ccn12 [Example 28, 7-(5-{[(5S,6S)-6-Hydroxyspiro[2.4]heptan-5-yl]carbamoyl}-2-(trifluoromethyl)phenyl)imidazo[1,5-a]pyridine-3-carboxamide]
23 | 0.48 | 5.6 | Nc1ncc(/C=C(\F)c2cc(C(=O)N[C@H]3CC4(CC4)C[C@@H]3O)ccc2OC(F)F)cn1 [Example 40, 3-[(1Z)-2-(2-Aminopyrimidin-5-yl)-1-fluoroethenyl]-4-(difluoromethoxy)-N-[(5S,6S)-6-hydroxyspiro[2.4]heptan-5-yl]benzamide]
24 | 0.39 | 3.9 | Nc1ncc(/C=C(\F)c2cc(C(=O)N[C@H]3C[C@H](OC(F)(F)F)C[C@@H]3O)ccc2OC(F)F)cn1 [Example 39, 3-[(1Z)-2-(2-Aminopyrimidin-5-yl)-1-fluoroethenyl]-4-(difluoromethoxy)-N-[(1S,2S,4S)-2-hydroxy-4-(trifluoromethoxy)cyclopentyl]benzamide]
25 | 0.25 | 4.1 | COc1nc(N)ncc1C#Cc1cc(C(=O)N[C@H]2CC3(CC3)C[C@@H]2O)ccc1OC(F)F [Example 23, 3-[2-(2-Amino-4-methoxypyrimidin-5-yl)ethynyl]-4-(difluoromethoxy)-N-[(5S,6S)-6-hydroxyspiro[2.4]heptan-5-yl]benzamide]
